Values of other authors as cited in patent US6747151B2, “Azo compounds for type I phototherapy” (Mallinckrodt, Inc., priority 2001, dated 2004).

What was measured:
tumors = settings: after administration
melanoma cells = settings: after administration

| Compound | uptake of porphyrins in tumors compared to normal tissues (tumors) | levels of melanin in melanoma cells compared to normal cells (melanoma cells) |
| --- | --- | --- |
| NCC(=O)CCC(=O)O [delta-aminolevulinic acid] | two-fold |  |
| dihydroxyindole-2-carboxylic acid |  | substantially enhanced |
